# Measurements as given in patent US8389468B2, “Approach to the treatment of compartment syndrome” (Lantmannen AS-Faktor AB, priority 2006, dated 2013).
# “Also recorded” adds a separate entry of the source.
# How the values were obtained:
# [1] = system: Staphylococcus areus (SA; strain LS1) infected joints; test: Arthritis by arthritogenic Staphylococcus areus (strain LS1), joint pressure; format: in vivo, rat
# Source text: Joints are enclosed by tender, noncompliant collagen capsules, further characterised by low elasticity but plasticity. At arthritis, the pressure in the synovial fluid in the joint cavity turns elevated, and inflammation adds to the symptoms. A CS is prevalent. In order to investigate if treatment with AF-16 could prevent or at least reduce the development of such a CS, adult rats were infected by systemic injection of a solution of an arthritogenic Staphylococcus areus (SA; strain LS1). One group of animals (n=3) were treated with AF-16 while a second group of rats (n=3) just received the vehicle, PBS. After a few days the knee joints and later on additional limb and foot joints turned tender, swollen and got elevated pressure in the joint cavities, as measured with the Samba Fibre Optic Pressure probe (Samba System 3200 & Samba Preclin 420 sensor; Samba Sensors AB, Gruvgatan 6, SE 42130 V. Frolunda, Sweden), as well as in the immediately surrounding tissue. The pressure in a normal synovial large joint is 0-5 mm Hg, but could increase more than five-fold in infected, inflamed joints. The interstitial fluid pressure in the subcutaneous tissue at a distance from the infected joint was measured for comparison and found to remain within normal limits, ±2 mm Hg. […] Infected animals, which only received treatment with the vehicle, PBS, developed CS of with time increasing severity.
# [2] = system: femoral artery; test: Injured arteries, local delivery by osmotic minipump; format: in vivo, rat
# Source text: During surgery and at a trauma arteries may be injured, causing the vascular wall to swell. These events will result in the development of elevated IFP in the vascular wall, resulting in inflammatory reactions and rebuilding (Hansson, Jennische & Skottner, 1987). […] Additional animals had for comparison their pumps filled with the vehicle. The injured arteries were investigated either 3, 5, 7 or 14 days later. Blood vessels recovered from the vehicle-treated animals were tender, had increased outer diameter and were swollen. […] The potency rate was higher for those treated with AF-16 as compared to the vehicle exposed ones. […] Further, the number of macrophages, foam cells and lymphocytes was as well reduced by the AF-16 treatment.
# [3] = system: Staphylococcus areus; test: Yellow pigment retained in cultured Staphylococcus areus; format: cell-based; conditions: cultured over night or 2 days with AF-16, vs vehicle
# Source text: Effects of AF was investigated in addition in prokaryotic cells, which are enclosed by a complex cell wall, thereby enabling the development of elevated pressure due to hampered membrane functions. That was done in bacteria, which synthesize and release a wide variety of substances that may cause damage to mammalian cells and thus to a body. Examples on such products are pigments, enzymes and toxins, which are transferred through the outer bacterial membrane to the extracellular environment. Inhibition of such membrane activities would reduce or even block the transfer and/or release of such pathogenic substances. In order to investigate if the peptide AF-16 affected the transfer of bacterial products from its synthesis in the bacterium to its environment, the following experiment was performed. The bacterium Staphylococcus areus, which synthesize a yellow pigment, was cultured over night or, occasionally for 2 days, in the presence or absence of the peptide AF-16. After a day or two was the bacterial culture rinsed, and then concentrated by centrifugation. The yellow pigment formed by the Staphylococcus areus was extracted from the permeabilized, pelleted bacteria with methanol and the light absorption determined by spectrometry.
# [4] = system: HSV-1 infected rats; test: Outflow of CSF through cribriform lamina, Evans blue-albumin (EBA) infusion in HSV-1 infected rats; format: in vivo, rat; conditions: 10 or 25 pg intranasally
# Source text: FIG. 6: Sections through the cribriform lamina, a bone structure separating the brain from the nose and through which the olfactory nerve pass. In the left figure (a) the dye-protein complex Evans blue-albumin (EBA) was infused into the subarachnoid space at day 5 after HSV-1 infection. The animal suffered from moderate encephalitis. Note that there is no red EBA in the cribriform lamina, nor in the nose, as the passage between the brain and nasal cavity is blocked. In the right figure (b) EBA was infused into the subarachnoid space of a non-infected, normal rat.
# Additional HSV-1 infected animals with distinctly overt symptoms were as well treated with 10 or 25 pg AF-16 intranasally, starting on day 5, 6 or 7, i.e. after having had the vehicle during the previous days. […] Thus, non of the acutely AF-16 treated rats had any persistent signs of deleterious ICP and thus no CS developed. […] That is seen in the mentioned figure (FIG. 5 a) as there is no red staining of the right half on the figure. However, treatment with 10 or 25 pg AF-16 intranasally turned the picture in HSV-1 infected rats as in the normal, non-infected ones. […] Thereby the outflow of CSF was restored and the ICP turned normal.
# [5] = system: HSV-1; test: Immunohistochemical demonstration of HSV antigens in brain, mice; format: in vivo; conditions: instillation twice daily in right nostril, six days
# Method: An alternative explanation to the improved survival of HSV-1 infected animals could be that the treatment with AF-16 prevented the virus from multiplying and/or spreading in the brain. […] Adult rats were infected by having a solution of the herpes simplex virus type 1 (HSV-1; strain 2762, batch 041028; 1.7×10^7 PFU/mL) instilled in their right nostril. Half of the animals received 10 min later 25 pi_ (1 or 10 pg) of AF-16 in their right nostril, and had thereafter the same dose of AF-16 instilled every morning at 8 AM and every night at 6 PM until the experiment was terminated on day 6. The other groups of the HSV-1 infected rats received at the same time intervals 25 pL of the vehicle, PBS. The animals were closely watched for signs of general sickness and of behavioral and motor dysfunction. The animals were sacrificed by an overdose of anesthetics on day 6, the skull opened and the brain removed. The brains, including the olfactory bulbs, were fixed by immersion in buffered formalin for at least a day. The brains were the dissected and divided in several specimens, which were processed for light microscopic investigation after paraffin embedding and sectioning. The sections were processed for routine staining and for immunohistochemical visualization of HSV-1 proteins (FIG. 4). […] Note the distinct staining of the nerve cells (black in FIG. 4a-c).
# [6] = system: Musculus extensor digitorum longus (EDL); test: Ischemic injury of skeletal muscle (EDL), compartment pressure; format: in vivo, rat
# Method: On the hind leg, the large vessels entering the Musculus extensor digitorum longus (EDL) were occluded for 1-3 hours by applying external pressure load (Cf. Jennische & Hansson, 1987; Jennische, Skottner & Hansson, 1987). Thereafter, the blood flow was allowed to resume, and the muscle enclosures and the skin incision repaired and sutured. […] A CS developed as the tissue and the interstitial tissue accumulated fluid in such a closed compartment and additionally the muscle tissue turned swollen and oedematous. The pressure within such an enclosed compartment increased, resulting in the development of a CS. Surgical intervention was required to prevent that parts of the skeletal muscle tissue became necrotic, if there was no additional treatment. […] Thus, treatment with AF-16 prevented the development of a CS, eventually reducing the tissue damage and loss.
sequence,measurement,setting,value
VCHSKTRSNPENNVGL [AF-16],"joint tenderness, swelling, pain",[1]; SA infected large joint,"did not have that tender, swollen and painful joints"
same,pressure in the infected joint,"[1]; SA infected large joint, n=3, normal joint 0-5 mm Hg",close to normal pressure in the joint
same,"number of S. areus in synovial fluid, treated vs not",[1]; larger joints,about the same
same,swelling and inflammation of injured vessels,"[2]; 3, 5, 7 or 14 days, vs vehicle",less swollen and inflamed
same,"damage, inflammatory reactions and reactive alterations (neointima) of femoral artery","[2]; after 14 days, vs vehicle",less damage and less prominent inflammatory reactions and less extensive reactive alterations
same,"number of macrophages, foam cells and lymphocytes","[2]; rat, in vivo",reduced
same,potency rate,[2]; vs vehicle,higher
same,"yellow pigment extracted from bacteria (light absorption), corrected for number of bacteria",[3],much more of the yellow pigment
same,outflow of CSF to nasal mucosa (EBA staining of cribriform lamina),[4],opened the passage for the CSF through the cribriform plate; also recorded: reversed the block of the outflow of CSF
same,distribution or extent of virus antigens in the brain vs vehicle,[5],no obvious difference in the distribution or extent of virus antigens
same,pressure within the muscle compartment,"[6]; EDL vessels occluded 1-3 hours, Samba pressure sensors",turn about normal
same,extent and volume of muscle tissue damage (light microscopy),[6]; vs vehicle,reduced the extent and volume of the tissue damage
